PMC12383022, “Discovery of a Novel Antimicrobial Peptide from Paenibacillus sp. Na14 with Potent Activity Against Gram-Negative Bacteria and Genomic Insights into Its Biosynthetic Pathway” (Antibiotics, 2025)
Where two headings read alike, the source gives them in different places. Where no end group is shown, it is not given here.

Experiments:
[1] = tested on: E. coli TISTR 887, P. aeruginosa TISTR 357, K. pneumoniae TISTR 1383; experiment: Time–kill kinetic assay, statement for all tested strains; type: cell-based; conditions: peptide at 1× MIC
Method: (§1) The cultures were diluted 20-fold using CAMHB. […] The diluted bacterial suspension (10 μL) was mixed into each well before incubating the plates at 37 °C. At predetermined time points, 100 μL of either diluted or undiluted samples from each well were plated on MH agar and incubated at 37 °C for 24 h. Bacterial viability was assessed by colony counting and expressed as log CFU/mL [56].

K. pneumoniae TISTR 1383 [2] = conditions: agar well diffusion vs untreated control, mean ± SD, three independent experiments
Method: (§3) The purified Na14 AMP was prepared at a concentration of 10× MIC. Thermal stability was assessed by incubating the peptide at 30 °C, 50 °C, 70 °C, and 90 °C for 3 h. pH stability was evaluated by adjusting the peptide solution to pH 3, 5, 7, 9, and 11 using 1 N HCl or 1 N NaOH, followed by incubation at 37 °C for 3 h and subsequent neutralization to the original pH. […] The residual antimicrobial activity of each treatment condition was determined using an agar well diffusion assay against E. coli TISTR 887, P. aeruginosa TISTR 357, and K. pneumoniae TISTR 1383 to cross-validate efficacy across multiple pathogens. The untreated peptide served as a control. Statistical significance was analyzed using one-way ANOVA, with comparisons to the control group considered significant at p-value < 0.05. The results are presented as the percentage of residual antimicrobial activity.

E. coli TISTR 887 [3] = experiment: Antimicrobial activity of purification fractions (arbitrary units, two-fold dilutions, agar well diffusion); type: cell-based, Escherichia coli; conditions: against E. coli TISTR 887
Method: Single colonies of the Na14 isolate were resuspended in 0.9% NaCl solution, and the cell suspension was adjusted to an OD of 0.35 at 625 nm. A 2% aliquot of this suspension was inoculated into 196 mL of LB broth and incubated at 37 °C for 24 h. The CFS was collected by centrifugation at 10,000× g for 15 min at 4 °C. Bioactive compounds were then precipitated using stepwise ammonium sulfate precipitation at 25%, 50%, and 75% saturation levels. The active compounds were purified using cation exchange chromatography (CIEX) followed by reversed-phase chromatography (RPC), as described in our previous study. The purified compounds were concentrated using a refrigerated speed vacuum concentrator. The dried samples were reconstituted in deionized water and subjected to two-fold serial dilutions. An aliquot (100 µL) of each dilution was used to evaluate antimicrobial activity using the agar well diffusion method, employing E. coli TISTR 887 as the tested bacteria. The purification efficiency was assessed by calculating antimicrobial activity at each purification stage using the following equation [49]. Antimicrobial activity (arbitrary unit/mL; AU/mL)= 2^n × 1000/V where n represents the reciprocal of the highest two-fold dilution that produces a visible inhibition zone, and V denotes the volume of the sample in µL.

E. coli TISTR 887 [4] = type: cell-based, Escherichia coli; conditions: TISTR 887, 24 h
Method: (§2) A bacterial suspension was prepared by adjusting its turbidity at OD 625 nm to 0.1 and subsequently made a 20-fold dilution using Cation-Adjusted Mueller–Hinton broth (CAHMB) as a diluent. […] The diluted cell suspension (10 µL) was added to each well, and the plates were incubated at 37 °C for 24 h. The CAMHB alone was used as a negative control, while CAMHB containing colistin or vancomycin served as a positive control.

E. coli TISTR 887 [5] = conditions: agar well diffusion vs untreated control, mean ± SD, three independent experiments
Method: as §3

K. pneumoniae TISTR 1383 [6] = experiment: Time–kill assay; type: cell-based, Klebsiella pneumoniae
Method: as §1

S. aureus TISTR 517 = experiment: microbe, parasite or virus in culture; type: cell-based, Staphylococcus aureus; conditions: TISTR 517, 24 h
Method: as §2

MRSA Strain 2468 = experiment: microbe, parasite or virus in culture; type: cell-based, Staphylococcus aureus; conditions: Strain 2468, 24 h
Method: as §2

P. aeruginosa TISTR 357 [7] = type: cell-based, Pseudomonas aeruginosa; conditions: TISTR 357, 24 h
Method: as §2

P. aeruginosa TISTR 357 [8] = experiment: Time–kill assay; type: cell-based, Pseudomonas aeruginosa
Method: as §1

P. aeruginosa TISTR 357 [9] = conditions: agar well diffusion vs untreated control, mean ± SD, three independent experiments
Method: as §3

K. pneumoniae TISTR 1383 [10] = type: cell-based, Klebsiella pneumoniae; conditions: TISTR 1383, 24 h
Method: as §2

E. coli TISTR 887 [11] = experiment: Time–kill assay; type: cell-based, Escherichia coli
Method: as §1

E. coli TISTR 887 [12] = experiment: SDS-PAGE gel overlay inhibition assay; type: cell-based, Escherichia coli; conditions: 15% SDS-PAGE gel overlaid with soft agar containing E. coli TISTR 887; at the position of the peptide band
Method: The peptides ([…]) were subjected to analysis using a 15% sodium dodecyl sulfate-polyacrylamide gel electrophoresis (SDS-PAGE). The gel was electrophoresed at a constant voltage of 100 V. One half of the gel was stained using Coomassie brilliant blue G-250 to visualize protein bands, with a molecular weight marker included to facilitate band position comparison. The remaining half was fixed in a solution containing 5% acetic acid and 25% methanol for 30 min, followed by a 3 h wash with distilled water. Subsequently, 18 mL of soft MH agar, including E. coli TISTR 887, was overlaid onto the gel to assess antimicrobial activity by observing inhibition zones after incubation at 37 °C for 24 h.

[13] = peptide at 10× MIC adjusted to pH 3 (1 N HCl or 1 N NaOH), 37 °C, 3 h, then neutralized
[14] = peptide at 10× MIC adjusted to pH 5, 37 °C, 3 h, then neutralized
[15] = peptide at 10× MIC adjusted to pH 7, 37 °C, 3 h, then neutralized
[16] = peptide at 10× MIC adjusted to pH 9, 37 °C, 3 h, then neutralized
[17] = peptide at 10× MIC adjusted to pH 11, 37 °C, 3 h, then neutralized
[18] = peptide at 10× MIC incubated at 30 °C for 3 h
[19] = peptide at 10× MIC incubated at 50 °C for 3 h
[20] = peptide at 10× MIC incubated at 70 °C for 3 h
[21] = peptide at 10× MIC incubated at 90 °C for 3 h
[22] = peptide at 0.5× MIC, growth resumed thereafter until 24 h
[23] = peptide at 1× MIC, CAMHB, 37 °C, LOD 10 CFU/mL
[24] = peptide at 2× MIC, CAMHB, 37 °C, LOD 10 CFU/mL

LALLVVVKVLKYVV [Na14 peptide]
reduction of bacterial counts [1]: more than 3 log units
Residual Antimicrobial Activity, K. pneumoniae TISTR 1383 (K. pneumoniae TISTR 1383 [2]; [13]): 100.43 ± 0.37%
Residual Antimicrobial Activity, K. pneumoniae TISTR 1383 (K. pneumoniae TISTR 1383 [2]; [14]): 99.14 ± 1.35%
Residual Antimicrobial Activity, K. pneumoniae TISTR 1383 (K. pneumoniae TISTR 1383 [2]; [15]): 98.06 ± 2.34%
Residual Antimicrobial Activity, K. pneumoniae TISTR 1383 (K. pneumoniae TISTR 1383 [2]; [16]): 97.62 ± 2.08%
Residual Antimicrobial Activity, K. pneumoniae TISTR 1383 (K. pneumoniae TISTR 1383 [2]; [17]): 99.57 ± 2.08%
Residual Antimicrobial Activity, K. pneumoniae TISTR 1383 (K. pneumoniae TISTR 1383 [2]; [18]): 100.89 ± 0.39%
Residual Antimicrobial Activity, K. pneumoniae TISTR 1383 (K. pneumoniae TISTR 1383 [2]; [19]): 98.21 ± 4.09%
Residual Antimicrobial Activity, K. pneumoniae TISTR 1383 (K. pneumoniae TISTR 1383 [2]; [20]): 98.66 ± 4.07%
Residual Antimicrobial Activity, K. pneumoniae TISTR 1383 (K. pneumoniae TISTR 1383 [2]; [21]): 99.11 ± 1.39%
Specific Activity (E. coli TISTR 887 [3]; purification balance sheet): 835.99 AU/mg
Arbitrary Activity (E. coli TISTR 887 [3]; two-fold serial dilutions, 100 µL, agar well diffusion, AU/mL = 2^n × 1000/V): 320 AU/mL
MBC, E. coli TISTR 887 (E. coli TISTR 887 [4]): 2 µg/mL
MIC, E. coli TISTR 887 (E. coli TISTR 887 [4]): 2 µg/mL
Residual Antimicrobial Activity, E. coli TISTR 887 (E. coli TISTR 887 [5]; [13]): 100.64 ± 2.30%
Residual Antimicrobial Activity, E. coli TISTR 887 (E. coli TISTR 887 [5]; [14]): 100.85 ± 1.95%
Residual Antimicrobial Activity, E. coli TISTR 887 (E. coli TISTR 887 [5]; [15]): 99.36 ± 2.93%
Residual Antimicrobial Activity, E. coli TISTR 887 (E. coli TISTR 887 [5]; [16]): 98.72 ± 1.28%
Residual Antimicrobial Activity, E. coli TISTR 887 (E. coli TISTR 887 [5]; [17]): 98.51 ± 1.33%
Residual Antimicrobial Activity, E. coli TISTR 887 (E. coli TISTR 887 [5]; [18]): 98.24 ± 1.67%
Residual Antimicrobial Activity, E. coli TISTR 887 (E. coli TISTR 887 [5]; [19]): 99.12 ± 1.02%
Residual Antimicrobial Activity, E. coli TISTR 887 (E. coli TISTR 887 [5]; [20]): 98.89 ± 2.03%
Residual Antimicrobial Activity, E. coli TISTR 887 (E. coli TISTR 887 [5]; [21]): 98.46 ± 1.55%
duration of growth inhibition, K. pneumoniae TISTR 1383 (K. pneumoniae TISTR 1383 [6]; [22]): up to 6 h
time at which bacteria were eliminated, K. pneumoniae TISTR 1383 (K. pneumoniae TISTR 1383 [6]; [23]): 9 h
time of complete eradication, K. pneumoniae TISTR 1383 (K. pneumoniae TISTR 1383 [6]; [24]): 6 h
MBC, S. aureus TISTR 517 (S. aureus TISTR 517): >128 µg/mL
MIC, S. aureus TISTR 517 (S. aureus TISTR 517): >128 µg/mL
MBC, MRSA strain 2468 (MRSA Strain 2468): >128 µg/mL
MIC, MRSA strain 2468 (MRSA Strain 2468): >128 µg/mL
MBC, P. aeruginosa TISTR 357 (P. aeruginosa TISTR 357 [7]): 2 µg/mL
MIC, P. aeruginosa TISTR 357 (P. aeruginosa TISTR 357 [7]): 2 µg/mL
duration of temporary growth suppression, P. aeruginosa TISTR 357 (P. aeruginosa TISTR 357 [8]; [22]): 3 h
time at which bacteria were eliminated, P. aeruginosa TISTR 357 (P. aeruginosa TISTR 357 [8]; [23]): 6 h
time of complete eradication, P. aeruginosa TISTR 357 (P. aeruginosa TISTR 357 [8]; [24]): 3 h
Residual Antimicrobial Activity, P. aeruginosa TISTR 357 (P. aeruginosa TISTR 357 [9]; [13]): 99.58 ± 0.74%
Residual Antimicrobial Activity, P. aeruginosa TISTR 357 (P. aeruginosa TISTR 357 [9]; [14]): 99.36 ± 1.69%
Residual Antimicrobial Activity, P. aeruginosa TISTR 357 (P. aeruginosa TISTR 357 [9]; [15]): 99.36 ± 3.18%
Residual Antimicrobial Activity, P. aeruginosa TISTR 357 (P. aeruginosa TISTR 357 [9]; [16]): 98.73 ± 2.30%
Residual Antimicrobial Activity, P. aeruginosa TISTR 357 (P. aeruginosa TISTR 357 [9]; [17]): 98.30 ± 2.24%
Residual Antimicrobial Activity, P. aeruginosa TISTR 357 (P. aeruginosa TISTR 357 [9]; [18]): 98.08 ± 1.11%
Residual Antimicrobial Activity, P. aeruginosa TISTR 357 (P. aeruginosa TISTR 357 [9]; [19]): 98.51 ± 0.37%
Residual Antimicrobial Activity, P. aeruginosa TISTR 357 (P. aeruginosa TISTR 357 [9]; [20]): 98.72 ± 0.64%
Residual Antimicrobial Activity, P. aeruginosa TISTR 357 (P. aeruginosa TISTR 357 [9]; [21]): 97.22 ± 1.62%
MBC, K. pneumoniae TISTR 1383 (K. pneumoniae TISTR 1383 [10]): 4 µg/mL
MIC, K. pneumoniae TISTR 1383 (K. pneumoniae TISTR 1383 [10]): 4 µg/mL
duration of temporary growth suppression, E. coli TISTR 887 (E. coli TISTR 887 [11]; [22]): 3 h
time at which bacteria were eliminated, E. coli TISTR 887 (E. coli TISTR 887 [11]; [23]): 12 h
time of complete eradication, E. coli TISTR 887 (E. coli TISTR 887 [11]; [24]): 6 h
gel overlay inhibition of E. coli TISTR 887 (E. coli TISTR 887 [12]): An inhibition zone was observed
